How the values were obtained:
Erp5 = target: T1, Erp5 (Homo sapiens, UniProt Q15084); experiment: Insulin reductase activity assay, Erp5; type: biochemical
T1 construct: His; Passam F., Furie B., Furie B.C; (persons named as the source, not a vendor)
T1 sequence (Q15084 20-440): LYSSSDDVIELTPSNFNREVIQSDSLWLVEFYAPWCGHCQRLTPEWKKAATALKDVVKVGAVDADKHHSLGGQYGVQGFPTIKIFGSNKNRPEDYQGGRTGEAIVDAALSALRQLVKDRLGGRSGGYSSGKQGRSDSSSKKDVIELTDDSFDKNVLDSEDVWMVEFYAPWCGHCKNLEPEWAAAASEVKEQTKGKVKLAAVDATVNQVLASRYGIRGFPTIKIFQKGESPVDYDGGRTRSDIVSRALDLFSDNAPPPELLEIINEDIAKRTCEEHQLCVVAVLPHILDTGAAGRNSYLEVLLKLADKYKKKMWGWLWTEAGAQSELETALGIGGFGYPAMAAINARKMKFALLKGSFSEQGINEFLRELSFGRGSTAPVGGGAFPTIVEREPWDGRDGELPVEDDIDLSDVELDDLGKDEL

Erp72 = target: T2, Erp72 (Homo sapiens, UniProt P13667); experiment: Insulin reductase activity assay, Erp72; type: biochemical
T2 construct: His; purchased Enzo, Farmingdale, N.Y
T2 sequence (P13667 21-645): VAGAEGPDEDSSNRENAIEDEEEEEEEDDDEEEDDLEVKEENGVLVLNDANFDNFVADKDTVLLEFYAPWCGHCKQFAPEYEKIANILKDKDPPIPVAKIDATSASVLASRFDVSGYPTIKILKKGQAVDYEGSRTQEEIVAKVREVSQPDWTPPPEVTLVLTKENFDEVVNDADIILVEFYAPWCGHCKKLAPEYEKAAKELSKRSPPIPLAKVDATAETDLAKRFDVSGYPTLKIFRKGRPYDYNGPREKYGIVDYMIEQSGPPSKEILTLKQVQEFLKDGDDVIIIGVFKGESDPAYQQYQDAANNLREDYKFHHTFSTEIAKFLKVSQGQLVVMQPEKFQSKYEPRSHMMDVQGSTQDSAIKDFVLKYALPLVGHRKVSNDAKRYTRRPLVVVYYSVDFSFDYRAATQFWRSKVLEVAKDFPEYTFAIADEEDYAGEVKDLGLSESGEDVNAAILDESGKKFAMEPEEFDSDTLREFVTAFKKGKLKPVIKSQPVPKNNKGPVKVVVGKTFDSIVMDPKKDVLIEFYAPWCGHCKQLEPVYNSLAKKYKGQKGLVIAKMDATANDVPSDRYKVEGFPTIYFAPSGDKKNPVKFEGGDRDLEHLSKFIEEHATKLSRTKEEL

mouse VKORc1 = target: T3, mouse VKORc1 (Mus musculus, UniProt Q9CRC0); experiment: Assay for VKOR enzymatic activity in mouse liver microsomes; type: biochemical
T3 construct: Solubilized mouse liver microsomes (20 μL) were added to 180 μL of buffer; from tissue; host or cells: mouse liver (solubilized microsomes)
T3 sequence (Q9CRC0 1-161): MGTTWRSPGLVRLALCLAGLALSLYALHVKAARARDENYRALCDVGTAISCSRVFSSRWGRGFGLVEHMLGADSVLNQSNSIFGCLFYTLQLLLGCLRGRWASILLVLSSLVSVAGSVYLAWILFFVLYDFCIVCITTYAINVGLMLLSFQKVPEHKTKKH

Erp57 = target: T4, Erp57 (Homo sapiens, UniProt P30101); experiment: Insulin reductase activity assay, Erp57; type: biochemical
T4 construct: His; purchased AbCam, Cambridge, Mass
T4 sequence (P30101 25-505): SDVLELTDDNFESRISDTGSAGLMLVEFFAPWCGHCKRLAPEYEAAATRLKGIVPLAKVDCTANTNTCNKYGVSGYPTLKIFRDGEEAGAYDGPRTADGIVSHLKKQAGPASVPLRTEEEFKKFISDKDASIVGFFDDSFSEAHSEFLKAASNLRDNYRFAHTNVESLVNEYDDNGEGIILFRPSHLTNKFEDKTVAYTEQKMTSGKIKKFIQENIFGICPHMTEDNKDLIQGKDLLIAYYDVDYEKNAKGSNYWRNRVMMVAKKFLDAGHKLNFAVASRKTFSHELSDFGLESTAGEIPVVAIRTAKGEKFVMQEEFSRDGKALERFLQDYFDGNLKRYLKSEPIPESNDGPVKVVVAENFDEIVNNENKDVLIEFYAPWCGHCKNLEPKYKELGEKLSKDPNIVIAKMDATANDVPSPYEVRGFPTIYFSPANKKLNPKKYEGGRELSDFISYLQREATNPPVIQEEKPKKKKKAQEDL

M. tuberculosis H37Rv = M. tuberculosis H37Rv growth inhibition (Alamar Blue MIC); type: cell-based, Mycobacterium tuberculosis; conditions: three different media
PDI = target: T5, PDI (Homo sapiens, UniProt P07237); experiment: Insulin reductase activity assay, PDI; type: biochemical
T5 construct: His; purchased Prospec, East Brunswick, N.J

DsbB = target: T6, DsbB (Escherichia coli, UniProt P0A6M2, C49V/C8A); experiment: cell-based; type: cell-based, E. coli; conditions: for EC50 RATIO (EC50 compound 16/EC50): E. coli DHB7935, liquid media
T6 construct: expressed in transfected cells; host or cells: E. coli DHB7935 (HK295 ΔdsbB λatt::malF-lacZ102, φ80::pDSW206dsbBhis6-c-myc)

purified EcDsbB = target: T7, purified EcDsbB (Escherichia coli, UniProt P0A6M2, C49V/C8A); experiment: In vitro assay of purified DsbB (ubiquinone reduction); type: biochemical, E. coli; conditions: IC50 (μM), Table 9
T7 construct: made in house; host or cells: E. coli
Text: In addition to the in vivo assays of MICs, we have purified DsbB from E. coli and assessed the concentration dependence for inhibition of the enzyme's activity in oxidizing DsbA.
In this assay, we determine the concentration of a compound necessary to reduce the activity of purified DsbB enzyme by 50%. DsbB uses ubiquinone as a co-factor for the generation of disulfide bonds. DsbB oxidizes DsbA and reduces ubiquinone. When it is in the oxidized state, ubiquinone absorbs strongly at 275 nm but it has a diminished absorbance when it is in the reduced state at the same wavelength. Therefore, DsbB activity can be measured by the reduction of ubiquinone and this is assessed by following the decrease of absorbance of ubiquinone at 275 nm. The assay uses 20 μM purified and DTT-reduced DsbA, 20 uM UbQ-5, and 2 nM purified DsbB at pH6.0.
We tested several compounds for their inhibitory effect on EcDsbB-mediated ubiquinone reduction using purified enzymes. In this assay, reduced DsbA provides the source of electrons that are used by EcDsbB to reduce ubiquinone-5. The compounds show dose-dependent inhibition of EcDsbB with half-maximal inhibitory concentrations (IC50) in the low-μM range.

E. coli DsbB = E. coli DsbB (Escherichia coli, UniProt P0A6M2); experiment: Blue/white beta-galactosidase agar assay, DsbB-based E. coli strain; type: cell-based; conditions: agar assay
VKOR of M. tuberculosis = target: T8, VKOR of M. tuberculosis (Mycobacterium tuberculosis, UniProt I6X5W1); type: cell-based; conditions: agar assay
T8 sequence (I6X5W1 1-210): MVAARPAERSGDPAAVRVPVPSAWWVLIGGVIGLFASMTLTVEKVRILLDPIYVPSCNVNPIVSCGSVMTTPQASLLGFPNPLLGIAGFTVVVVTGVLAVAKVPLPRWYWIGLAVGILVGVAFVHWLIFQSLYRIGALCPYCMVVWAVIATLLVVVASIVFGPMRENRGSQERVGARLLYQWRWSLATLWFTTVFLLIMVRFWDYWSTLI

T7 sequence (P0A6M2 whole entry C8A/C49V): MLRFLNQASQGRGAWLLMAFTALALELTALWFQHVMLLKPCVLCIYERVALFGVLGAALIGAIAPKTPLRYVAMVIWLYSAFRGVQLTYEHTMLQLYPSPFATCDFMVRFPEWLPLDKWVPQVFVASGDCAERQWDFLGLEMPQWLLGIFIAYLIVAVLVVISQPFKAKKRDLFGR
T6 sequence (P0A6M2 whole entry C8A/C49V): as above
Sequence of E. coli DsbB (P0A6M2 whole entry): as the sequence (P0A6M2 whole entry C8A/C49V) above, with A8C, V49C counted along it
T5 sequence (P07237 18-508, species assumed): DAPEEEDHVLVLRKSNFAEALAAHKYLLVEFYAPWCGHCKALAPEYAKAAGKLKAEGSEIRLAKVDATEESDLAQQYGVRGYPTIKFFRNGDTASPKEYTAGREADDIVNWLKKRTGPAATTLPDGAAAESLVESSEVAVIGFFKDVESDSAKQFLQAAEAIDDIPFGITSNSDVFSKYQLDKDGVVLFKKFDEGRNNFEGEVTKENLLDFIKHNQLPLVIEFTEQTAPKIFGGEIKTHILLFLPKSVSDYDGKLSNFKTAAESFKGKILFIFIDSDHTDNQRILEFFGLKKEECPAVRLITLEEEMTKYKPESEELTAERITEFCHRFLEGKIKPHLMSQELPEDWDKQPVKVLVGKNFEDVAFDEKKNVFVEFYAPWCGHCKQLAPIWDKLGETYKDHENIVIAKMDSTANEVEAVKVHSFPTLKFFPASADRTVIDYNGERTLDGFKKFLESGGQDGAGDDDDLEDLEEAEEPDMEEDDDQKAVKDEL

Structure (SMILES)	EC50 (DsbB)	further results
CNC(=O)C#CCC1C(=O)c2ccccc2C1=O [Compound 1]		inhibition of Erp5 activity (Erp5): inhibited; inhibition of Erp72 activity (Erp72): inhibited; inhibition of VKOR activity (mouse VKORc1): inhibited; inhibition of Erp57 activity (Erp57): inhibited; effect on growth of M. tuberculosis (in words) (M. tuberculosis H37Rv): relatively strong effect in only one of the three media; inhibition of PDI activity (PDI): inhibited
Cc1oncc1C(=O)Nc1ccccc1 [Compound 4]		effect on growth of M. tuberculosis (in words) (M. tuberculosis H37Rv): no effects
Cc1nnc(-c2cccc(C)c2C)c(C)n1 [Compound 8]		effect on growth of M. tuberculosis (in words) (M. tuberculosis H37Rv): no effects
CCCCNc1c(Cl)cnn(-c2ccccc2)c1=O [Compound 13]	30.4 µM	IC50 (purified EcDsbB): 8.12 µM
CCOc1c(Cl)cnn(-c2ccccc2)c1=O [Compound 14]	25.6 µM	IC50 (purified EcDsbB): 6.57 µM
O=c1c(N2CCCC2)c(Cl)cnn1-c1ccccc1 [Compound 15]	28.1 µM	IC50 (purified EcDsbB): 8.24 µM
O=c1c(Cl)c(Cl)cnn1-c1ccccc1 [Compound 16.2]	2.04 µM	fold more inhibitory than compound 16 (DsbB): 10 fold; EC50 RATIO (EC50 compound 16/EC50) (DsbB): 2.49; IC50 (purified EcDsbB): 2.34 µM
Cc1cccc(Cn2ncc(Cl)c(Cl)c2=O)c1 [Compound 16.4]	13.9 µM	EC50 RATIO (EC50 compound 16/EC50) (DsbB): 0.37; IC50 (purified EcDsbB): 1.27 µM
O=c1c(Cl)c(Cl)cnn1Cc1ccc([N+](=O)[O-])cc1 [Compound 16.8]	38.7 µM	
N#Cc1cccc(Cn2ncc(Cl)c(Cl)c2=O)c1 [Compound 16.9]	509 µM	
COc1cccc(Cn2ncc(Cl)c(Cl)c2=O)c1 [Compound 16.11]	232 µM	
O=c1c(Cl)c(Cl)cnn1Cc1ccccc1Br [Compound 16.12]	0.47 µM	fold more inhibitory than compound 16 (DsbB): 10 fold; EC50 RATIO (EC50 compound 16/EC50) (DsbB): 10.77
Cc1ccccc1Cn1ncc(Cl)c(Cl)c1=O [Compound 16.13]	3.56 µM	EC50 RATIO (EC50 compound 16/EC50) (DsbB): 1.43
N#Cc1ccccc1Cn1ncc(Cl)c(Cl)c1=O [Compound 16.14]	13.2 µM	EC50 RATIO (EC50 compound 16/EC50) (DsbB): 0.39
O=c1c(Br)c(Br)cnn1Cc1ccccc1 [Compound 16.17]	13.2 µM	
O=c1c(Cl)c(Cl)cnn1-c1ccccc1Cl [Compound 16.20]	1.34 µM	EC50 RATIO (EC50 compound 16/EC50) (DsbB): 3.80
O=c1c(Cl)c(Cl)cnn1Cc1c(F)cccc1Cl [Compound 16.22]	18.1 µM	

Structure (SMILES)	EC50 (DsbB)	further results
O=c1c(Cl)c(Cl)cnn1Cc1ccccc1F [Compound 16.23]	3.09 µM	EC50 RATIO (EC50 compound 16/EC50) (DsbB): 1.65
O=c1c(Cl)c(Cl)cnn1-c1ccccc1F [Compound 16.24]	13.7 µM	EC50 RATIO (EC50 compound 16/EC50) (DsbB): 0.73
O=c1cc(Cl)cnn1Cc1ccccc1Cl [Compound 16.25, 5-chloro-2-(2-chlorobenzyl)pyridazin-3(2H)-one]	8.37 µM	
Cc1c(Cl)cnn(Cc2ccccc2Cl)c1=O [Compound 16.26, 5-chloro-2-(2-chlorobenzyl)-4-methylpyridazin-3(2H)-one]	18.7 µM	
O=c1c(Br)c(Br)cnn1Cc1ccccc1Cl [Compound 16.27, 4,5-dibromo-2-(2-chlorobenzyl)pyridazin-3(2H)-one]	0.025 µM	
O=c1c(Cl)c(Cl)cnn1Cc1ccccc1C(F)(F)F [Compound 16.35, 4,5-dichloro-2-(2-(trifluoromethyl)benzyl)pyridazin-3(2H)-one]	2.81 µM	
O=c1c(Cl)c(Cl)cnn1Cc1ccccc1OC(F)(F)F [Compound 16.36, 4,5-dichloro-2-(2-(trifluoromethoxy)benzyl)pyridazin-3(2)-one]	7.12 µM	
O=c1c(Cl)c(Cl)cnn1Cc1c(Cl)cccc1Cl [Compound 16.37, 4,5-dichloro-2-(2,6-dichlorobenzyl)pyridazin-3(2H)-one]	6570 µM	
O=c1c(Cl)c(Cl)cnn1Cc1ccncc1Cl [Compound 16.39]	15.2 µM	
O=c1c(Cl)c(Cl)cnn1Cc1ncccc1Cl [Compound 16.40, 4,5-dichloro-2-((3-chloropyridin-2-yl)methyl)pyridazin-3(2H)-one]	10.8 µM	
O=c1c(Cl)c(Cl)cnn1Cc1cccs1 [Compound 16.41, 4,5-dichloro-2-(thiophen-2-ylmethyl)pyridazin-3(2H)-one]	33.1 µM	
O=c1c(Cl)c(Cl)cnn1Cc1sccc1Cl [Compound 16.42, 4,5-dichloro-2-((3-chlorothiophen-2-yl)methyl)pyridazin-3(2H)-one]	1.45 µM	
O=c1c(Br)c(Cl)cnn1Cc1ccccc1Cl [Compound 16.43, 4-bromo-5-chloro-2-(2-chlorobenzyl)pyridazin-3(2H)-one]	0.29 µM	
O=c1c(Cl)c(Br)cnn1Cc1ccccc1Cl [Compound 16.44, 5-bromo-4-chloro-2-(2-chlorobenzyl)pyridazin-3(2H)-one]	0.32 µM	
COc1c(Cl)cnn(-c2cccc(C)c2)c1=O [Compound 17]	72.8 µM	IC50 (purified EcDsbB): 5.42 µM
COC(C)(C)C#CC(=O)c1cccc2ccccc12 [Compound 23]		inhibition of the DsbB-based strain, in words (E. coli DsbB): weak inhibitor; effect on growth of M. tuberculosis (in words) (M. tuberculosis H37Rv): inhibitor of M. tuberculosis growth
O=C1c2ccccc2C(=O)C1c1ccc(Br)cc1 [brominedione, reference compound]		inhibition of the DsbB-based strain, in words (E. coli DsbB): not of the DsbB-based strain; inhibition in the VKOR screen (MtbVKOR-based strain), in words (VKOR of M. tuberculosis): strong inhibitor
